From patent US11371055B2, “Herbicide resistance genes” (CORTEVA AGRISCIENCE LLC, priority 2005, dated 2022)

Tests used:
[1] = system: AAD-12 (v1) T1 tobacco plants; assay: Cross tolerance of T1 tobacco to phenoxy and pyridyloxy auxin herbicides; assay type: in vivo, Nicotiana tabacum
From the text: Two to four T0 individuals surviving high rates of 2,4-D and fluroxypyr were saved from each event and allowed to self fertilize in the greenhouse to give rise to T1 seed. The T1 seed was stratified, and sown into selection trays much like that of Arabidopsis (Example 7.4), followed by selective removal of untransformed nulls in this segregating population with 560 g ai/ha glufosinate (PAT gene selection). Survivors were transferred to individual 3-inch pots in the greenhouse. These lines provided high levels of resistance to 2,4-D in the T0 generation. Improved consistency of response is anticipated in T1 plants not having come directly from tissue culture. These plants were compared against wildtype KY160 tobacco. All plants were sprayed with a track sprayer set at 187 L/ha. The plants were sprayed from a range of 140-2240 g ac/ha 2,4-D dimethylamine salt (DMA), 70-1120 g ace/ha triclopyr or 35-560 g ae/ha fluroxypyr. All applications were formulated in water. Each treatment was replicated 2-4 times. Plants were evaluated at 3 and 14 days after treatment. Plants were assigned injury rating with respect to stunting, chlorosis, and necrosis. The T1 generation is segregating, so some variable response is expected due to difference in zygosity.

[2] = system: AAD-12 x AAD-1 F1 cross tobacco; assay: Auxinic herbicide cross tolerance of stacked tobacco, F1 cross; assay type: in vivo, Nicotiana tabacum; conditions: AAD-12 (v1) x AAD (v3) F1
Protocol: (§1) Homozygous AAD-12 (v1) (pDAS1580) and AAD-1 (v3) (pDAB721) plants (see PCT/US2005/014737 for the latter) were both reciprocally crossed and F1 seed was collected. The F1 seed from two reciprocal crosses of each gene were stratified and treated 4 reps of each cross were treated under the same spray regimen as used for the other testing with one of the following treatments: 70, 140, 280 g ac/ha fluroxypyr (selective for the AAD-12 (v1) gene); 280, 560, 1120 g ae/ha R-dichloroprop (selective for the AAD-1 (v3) gene); or 560, 1120, 2240 g ae/ha 2,4-D DMA (to confirm 2,4-D tolerance). Homozygous T2 plants of each gene were also planted for use as controls. Plants were graded at 3 and 14 DAT.

wildtype tobacco = assay: Auxinic herbicide cross tolerance of stacked tobacco, wildtype; assay type: in vivo, Nicotiana tabacum; conditions: KY160 wildtype control
Protocol: as §1

[3] = system: wild-type tobacco line (KY160); assay: Field tolerance of tobacco, wild-type line; assay type: in vivo, Nicotiana tabacum
Protocol: (§2) Field level tolerance trials were conducted on three AAD-12 (v1) lines (events pDAS1580-[1]-018.001, pDAS1580-[1]-004.001 and pDAS1580-[1]-020.016) and one wild-type line (KY160) at field stations in Indiana and Mississippi. Tobacco transplants were grown in the greenhouse by planting T1 seed in 72 well transplant flats (Hummert International) containing Metro 360 media according to growing conditions indicated above. The null plants were selectively removed by Liberty selection as previously described. The transplant plants were transported to the field stations and planted at either 14 or 24 inches apart using industrial vegetable planters. Drip irrigation at the Mississippi site and overhead irrigation at the Indiana site were used to keep plants growing vigorously.
(§3) The experimental design was a split plot design with 4 replications. The main plot was herbicide treatment and the sub-plot was tobacco line. The herbicide treatments were 2,4-D (dimethylamine salt) at 280, 560, 1120, 2240 and 4480 g ac/ha, triclopyr at 840 g ae/ha, fluroxypyr at 280 g ac/ha and an untreated control. Plots were one row by 25-30 ft. Herbicide treatments were applied 3-4 weeks after transplanting using compressed air backpack sprayer delivering 187 L/ha carrier volume at 130-200 kpa pressure. Visual rating of injury, growth inhibition, and epinasty were taken at 7, 14 and 21 days after treatment.

[4] = system: AAD-12 (v1) tobacco lines (pDAS1580-[1]-018.001, pDAS1580-[1]-004.001, pDAS1580-[1]-020.016); assay: Field tolerance of tobacco, AAD-12 lines; assay type: in vivo, Nicotiana tabacum
Protocol: as §2, §3

[5] = system: AAD-12 (v1) pDAB4101 corn events (4101(0)003.R.003.AF and 4101(0)005.R001.AF); assay: Field tolerance of corn: visual injury and brace root injury, AAD-12 events; assay type: in vivo, Zea mays; conditions: for % Visual Injury 14DAT / Brace Root Injury Rating (0-10 scale) 28DAT: 280 g ae/ha
Protocol: Seeds were planted with cone planter on 40-inch row spacing at Wayside and 30 inch spacing at Fowler. […] Herbicide treatments were 2,4-D (dimethylamine salt) at 1120, 2240 and 4480 g ae/ha, triclopyr at 840 g ae/ha, fluroxypyr at 280 g ae/ha and an untreated control. The AAD-12 (v1) events contained the AHAS gene as a selectable marker. The F2 corn events were segregating so the AAD-12 (v1) plants were treated with imazethapyr at 70 g ae/ha to remove the null plants. Herbicide treatments were applied when corn reached the V6 stage using compressed air backpack sprayer delivering 187 L/ha carrier volume at 130-200 kpa pressure. […]

[6] = Fluroxypyr at 280 g ae/ha, 14 DAT

With `Nc1c(Cl)c(F)nc(OCC(=O)O)c1Cl` [Fluroxypyr] the injury ([1]; 35-560 g ae/ha fluroxypyr) was “greatest injury”, the “Average % Injury of Replicates 14 DAT” value ([1]; T1 1580(1)-004, 35 g ae/ha) was 0% and the “Average % Injury of Replicates 14 DAT” value ([1]; T1 1580(1)-004, 140 g ae/ha) was 0%. The “Average % Injury of Replicates 14 DAT” value ([1]; T1 1580(1)-004, 560 g ae/ha) was 3%, the “Average % Injury of Replicates 14 DAT” value ([1]; T1 1580(1)-018, 35 g ae/ha) was 8% and the “Average % Injury of Replicates 14 DAT” value ([1]; T1 1580(1)-018, 140 g ae/ha) was 10%. For the same compound, the “Average % Injury of Replicates 14 DAT” value ([1]; T1 1580(1)-018, 560 g ae/ha) was 18%, the “Average % injury 14 DAT” value ([2]; 70 g ae/ha) was 0% and the “Average % injury 14 DAT” value ([2]; 140 g ae/ha) was 0%. The “Average % injury 14 DAT” value (wildtype tobacco; 70 g ae/ha) was 40%, the “Average % injury 14 DAT” value (wildtype tobacco; 140 g ae/ha) was 65% and the injury [3, 6] was 99%. The “Average % Injury across locations at 14 DAT” value ([3]; Wild type, 280 GM AE/HA) was 99%, the average injury [4, 6] was 11% and the “Average % Injury across locations at 14 DAT” value ([4]; pDAS1580-[1]-004.001, 280 GM AE/HA) was 11%. For the same compound, the “Average % Injury across locations at 14 DAT” value ([4]; pDAS1580-[1]-018.001, 280 GM AE/HA) was 12%, the “Average % Injury across locations at 14 DAT” value ([4]; pDAS1580-[1]-020.016, 280 GM AE/HA) was 11% and the “% Visual Injury 14DAT” value ([5]; AAD-12 4101(0)003.R.003.AF) was 1%. For the same compound, the “% Visual Injury 14DAT” value ([5]; AAD-12 4101(0)005.001.AF) was 5%, the “Brace Root Injury Rating (0-10 scale) 28DAT” value ([5]; AAD-12 event 4101(0)003.R.003.AF) was 0 and the “Brace Root Injury Rating (0-10 scale) 28DAT” value ([5]; AAD-12 event 4101(0)005.001.AF) was 0. For the same compound, the brace root injury ([5]; Fluroxypyr at 280 g ae/ha) was “no brace root injury” and the “visual injury, average” value ([5]; Fluroxypyr at 280 g ae/ha, 5DAT) was 8%.
